Active and inactive are the calls of the source. No cut-off for these calls is given here.
Assays:
Caco-2 = assay: Antiproliferative activity against human Caco-2 cells assessed as reduction in cell viability incubated for 7 days by CellTiter-Glo reagent based luminescence analysis; format: functional; conditions: Caco-2, 168 h
[1] = Half life in male Sprague-Dawley rat at 10 mg/kg, po administered via gavage and measured on day 1; format: ADME, organism-based; conditions: in vivo, time 1 day
[2] = Permeability of the compound in human Caco-2 cells at 2 uM incubated for 2 hrs by LC-MS/MS analysis; format: ADME, cell-based; conditions: read-out: permeability
[3] = Half-life in Balb/c mouse xenografted with human MV4-11 cells at 15 mg/kg, po administered once daily via gavage; format: ADME, organism-based; conditions: in vivo
[4] = target: Cyclin-dependent kinase 13/Cyclin-K (Homo sapiens, UniProt Q14004); assay: Inhibition of CDK13/Cyclin K (unknown origin) using pS7-CTD peptide and ATP as substrate incubated for 120 mins by ADP-Glo reagent based luminescence analysis; format: protein-complex assay
SUM149PT = assay: Antiproliferative activity against human SUM149PT cells assessed as inhibition of cell growth incubated for 7 days by CellTiter-Glo reagent based luminescence analysis; format: functional; conditions: 168 h
OCI-AML-3 = assay: Antiproliferative activity against human OCI-AML-3 cells assessed as reduction in cell viability incubated for 7 days by CellTiter-Glo reagent based luminescence analysis; format: functional; conditions: OCI-AML-3, 168 h
NAMALVA = assay: Antiproliferative activity against human NAMALWA cells assessed as reduction in cell viability incubated for 7 days by CellTiter-Glo reagent based luminescence analysis; format: functional; conditions: 168 h
Ramos = assay: Antiproliferative activity against human Ramos cells assessed as reduction in cell viability incubated for 7 days by CellTiter-Glo reagent based luminescence analysis; format: functional; conditions: 168 h
SW1417 = assay: Antiproliferative activity against human SW1417 cells assessed as reduction in cell viability incubated for 7 days by CellTiter-Glo reagent based luminescence analysis; format: functional; conditions: SW1417, 168 h
MDA-MB-231 = assay: Antiproliferative activity against human MDA-MB-231 cells assessed as reduction in cell viability incubated for 7 days by CellTiter-Glo reagent based luminescence analysis; format: functional; conditions: MDA-MB-231, 168 h
[5] = target: T1, Cyclin-dependent kinase 12/13 (Homo sapiens) (UniProt Q14004+Q9NYV4); assay: Covalent inhibition of CDK12/13 in human SUM149PT cells assessed as reduction in level of phosphorylation of Ser2 on RNA Pol II CTD at 500 nM incubated for 12 hrs followed by drug wash-out and measured after 72 hrs by western blot analysis; format: cell-based
[6] = target: T1, Cyclin-dependent kinase 12/13 (Homo sapiens); assay: Inhibition of CDK12/13 in human SUM149PT cells assessed as reduction in FANCI gene expression at 500 nM incubated for 8 to 24 hrs by qPCR analysis; format: cell-based; conditions: time lower 8.0 hrs, time upper […]
[7] = target: CDK12/Cyclin K (Homo sapiens) (UniProt O75909+Q9NYV4); assay: Inhibition of N-terminal GST-tagged human recombinant CDK12/N-terminal FLAG and C-terminal 6X His-tagged Cyclin K expressed in HEP Sf9 cells using ATP as substrate at 2 uM measured after 60 mins by ADP-Glo reagent based luminescence assay
[8] = target: CDK18/Cyclin Y (Homo sapiens) (UniProt Q07002+Q8ND76); assay: Inhibition of human recombinant N-terminal GST-tagged CDK18/N-terminal GST-tagged Cyclin Y expressed in HEP Sf9 cells using ATP as substrate at 2 uM measured after 60 mins by ADP-Glo reagent based luminescence assay
HEP Sf9 = assay: Inhibition of human recombinant N-terminal GST-tagged CDK6/C-terminal 6X His-tagged Cyclin D3 S259A mutant expressed in HEP Sf9 cells using ATP as substrate at 2 uM measured after 60 mins by ADP-Glo reagent based luminescence analysis
[9] = target: CDK2/Cyclin A2 (Homo sapiens) (UniProt P24941+P20248); assay: Inhibition of human recombinat N-terminal GST-tagged CDK2/C-terminal 8X His-tagged Cyclin A2 expressed in HEP Sf9 cells using ATP as substrate at 2 uM measured after 60 mins by ADP-Glo reagent based luminescence analysis
[10] = Cmax in Balb/c mouse xenografted with human MV4-11 cells at 30 mg/kg, po administered once daily via gavage; format: ADME, organism-based; conditions: in vivo
[11] = Cmax in Sprague-Dawley rat at 1 mg/kg, iv measured for 24 hrs by LC-MS/MS analysis; format: ADME, organism-based; conditions: in vivo
[12] = Cmax in Sprague-Dawley rat at 50 mg/kg, po measured for 24 hrs by LC-MS/MS analysis; format: ADME, organism-based; conditions: in vivo
[13] = AUC (0 to infinity) in Sprague-Dawley rat at 150 mg/kg, po by LC-MS/MS analysis; format: ADME, organism-based; conditions: in vivo
[14] = Toxicity against male Sprague-Dawley rat assessed as effect on body weight at 10 to 20 mg/kg, po administered once daily via gavage for 28 days and measured twice a week; format: organism-based; conditions: in vivo, 672 h, dose 10-20 mg/kg, time 28 day
[15] = Toxicity against male Sprague-Dawley rat assessed as perianal contamination at 40 mg/kg, po administered once daily via gavage for 28 days; format: organism-based; conditions: in vivo, 672 h, time 28 day
[16] = Toxicity against male Sprague-Dawley rat assessed as soft feces at 40 mg/kg, po administered once daily via gavage for 28 days; format: organism-based; conditions: in vivo, 672 h, time 28 day
[17] = Toxicity against female Sprague-Dawley rat assessed as increase in neutrophils content at 7.5 to 30 mg/kg, po administered once daily via gavage for 28 days and measured on day 29; format: organism-based; conditions: in vivo, 696 h, dose 7.5-30 mg/kg, time 29 day
[18] = Toxicity against male Sprague-Dawley rat assessed as decrease in thymus volume at 10 to 40 mg/kg, po administered once daily via gavage for 28 days and measured on day 29; format: organism-based; conditions: in vivo, 696 h, dose 10-40 mg/kg, time 29 day
[19] = Toxicity against male Sprague-Dawley rat assessed as decrease in thymus weight at 10 to 40 mg/kg, po administered once daily via gavage for 28 days and measured on day 29; format: organism-based; conditions: in vivo, 696 h, dose 10-40 mg/kg, time 29 day
[20] = Half life in male Sprague-Dawley rat at 40 mg/kg, po administered via gavage and measured on day 1; format: ADME, organism-based; conditions: in vivo, time 1 day
[21] = Half life in female Sprague-Dawley rat at 30 mg/kg, po administered via gavage and measured on day 1; format: ADME, organism-based; conditions: in vivo, time 1 day
[22] = Half life in male Sprague-Dawley rat at 10 mg/kg, po administered once daily via gavage for 28 days; format: ADME, organism-based; conditions: in vivo, time 28 day
[23] = Half life in male Sprague-Dawley rat at 20 mg/kg, po administered once daily via gavage for 28 days; format: ADME, organism-based; conditions: in vivo, time 28 day
[24] = Half life in female Sprague-Dawley rat at 7.5 mg/kg, po administered once daily via gavage for 28 days; format: ADME, organism-based; conditions: in vivo, time 28 day
[25] = Cmax in male Sprague-Dawley rat at 20 mg/kg, po administered via gavage and measured on day 1; format: ADME, organism-based; conditions: in vivo, time 1 day
[26] = Cmax in male Sprague-Dawley rat at 20 mg/kg, po administered once daily via gavage for 28 days; format: ADME, organism-based; conditions: in vivo, time 28 day
[27] = AUC(0 to t) in female Sprague-Dawley rat at 7.5 mg/kg, po administered once daily via gavage for 28 days; format: ADME, organism-based; conditions: in vivo, 672 h, time 28 day
[28] = Toxicity against male Sprague-Dawley rat assessed as body weight loss at 40 mg/kg, po administered once daily via gavage for 28 days and measured twice a week; format: organism-based; conditions: in vivo, 672 h, time 28 day

Sequence of Cyclin-dependent kinase 13/Cyclin-K (Q14004 whole entry): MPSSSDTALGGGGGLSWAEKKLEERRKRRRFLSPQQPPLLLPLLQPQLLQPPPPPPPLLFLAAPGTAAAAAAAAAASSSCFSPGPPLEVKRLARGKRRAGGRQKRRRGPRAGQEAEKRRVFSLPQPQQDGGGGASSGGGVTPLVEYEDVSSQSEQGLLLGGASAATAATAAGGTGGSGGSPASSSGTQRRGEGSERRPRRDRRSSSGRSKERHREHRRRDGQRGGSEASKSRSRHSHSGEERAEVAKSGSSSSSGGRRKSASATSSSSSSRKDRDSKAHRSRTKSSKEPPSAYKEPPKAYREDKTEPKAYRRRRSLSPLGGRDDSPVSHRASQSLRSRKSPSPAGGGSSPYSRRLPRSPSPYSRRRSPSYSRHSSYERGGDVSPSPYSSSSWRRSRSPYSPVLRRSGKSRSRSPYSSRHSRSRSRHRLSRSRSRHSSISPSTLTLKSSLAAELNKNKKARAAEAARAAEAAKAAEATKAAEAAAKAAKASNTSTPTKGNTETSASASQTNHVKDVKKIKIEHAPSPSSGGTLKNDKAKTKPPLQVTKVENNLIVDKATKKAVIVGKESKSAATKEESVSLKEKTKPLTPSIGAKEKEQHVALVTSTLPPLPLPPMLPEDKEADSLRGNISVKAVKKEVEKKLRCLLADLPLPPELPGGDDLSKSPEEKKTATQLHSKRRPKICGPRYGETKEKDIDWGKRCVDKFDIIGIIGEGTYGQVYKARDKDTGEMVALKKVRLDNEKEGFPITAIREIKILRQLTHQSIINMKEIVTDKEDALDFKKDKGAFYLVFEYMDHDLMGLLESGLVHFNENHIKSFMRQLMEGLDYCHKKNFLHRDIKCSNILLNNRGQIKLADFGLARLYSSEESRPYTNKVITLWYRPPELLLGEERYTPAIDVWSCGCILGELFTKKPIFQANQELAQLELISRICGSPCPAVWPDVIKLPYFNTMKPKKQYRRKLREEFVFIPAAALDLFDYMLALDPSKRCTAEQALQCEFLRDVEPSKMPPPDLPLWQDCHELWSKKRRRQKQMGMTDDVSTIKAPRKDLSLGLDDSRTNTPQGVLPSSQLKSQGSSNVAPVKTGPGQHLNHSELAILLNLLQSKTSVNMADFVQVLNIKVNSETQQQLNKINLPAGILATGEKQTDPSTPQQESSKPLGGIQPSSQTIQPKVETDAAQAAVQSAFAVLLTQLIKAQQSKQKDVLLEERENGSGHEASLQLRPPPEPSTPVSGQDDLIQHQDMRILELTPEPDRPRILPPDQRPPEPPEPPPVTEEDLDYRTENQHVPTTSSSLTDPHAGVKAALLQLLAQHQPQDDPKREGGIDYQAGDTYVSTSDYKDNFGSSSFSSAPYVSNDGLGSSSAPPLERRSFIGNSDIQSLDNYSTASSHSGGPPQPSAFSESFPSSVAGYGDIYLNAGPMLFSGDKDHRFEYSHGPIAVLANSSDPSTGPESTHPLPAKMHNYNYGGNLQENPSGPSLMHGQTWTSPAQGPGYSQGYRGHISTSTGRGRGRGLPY
Sequence of Cyclin-dependent kinase 13/Cyclin-K (O75909 whole entry, further chain): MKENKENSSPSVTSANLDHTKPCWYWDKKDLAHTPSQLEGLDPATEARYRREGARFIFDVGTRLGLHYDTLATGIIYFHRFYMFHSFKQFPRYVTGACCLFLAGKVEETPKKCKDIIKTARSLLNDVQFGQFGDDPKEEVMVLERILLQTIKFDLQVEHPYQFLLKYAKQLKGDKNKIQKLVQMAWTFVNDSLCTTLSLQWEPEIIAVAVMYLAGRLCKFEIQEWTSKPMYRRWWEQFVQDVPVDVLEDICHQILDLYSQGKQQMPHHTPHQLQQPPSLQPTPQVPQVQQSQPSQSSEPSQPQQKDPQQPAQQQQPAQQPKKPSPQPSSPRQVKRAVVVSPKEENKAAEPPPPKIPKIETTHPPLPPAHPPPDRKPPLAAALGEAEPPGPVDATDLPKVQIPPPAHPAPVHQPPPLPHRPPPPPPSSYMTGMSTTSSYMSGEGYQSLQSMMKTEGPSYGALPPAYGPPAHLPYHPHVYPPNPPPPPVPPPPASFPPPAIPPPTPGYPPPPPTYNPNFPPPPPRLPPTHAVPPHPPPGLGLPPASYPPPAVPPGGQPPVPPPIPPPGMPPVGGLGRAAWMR
Sequence of CDK12/Cyclin K (Homo sapiens) (O75909 whole entry, looked up): as the sequence (O75909 whole entry, further chain) above
Sequence of CDK12/Cyclin K (Homo sapiens) (Q9NYV4 whole entry, looked up): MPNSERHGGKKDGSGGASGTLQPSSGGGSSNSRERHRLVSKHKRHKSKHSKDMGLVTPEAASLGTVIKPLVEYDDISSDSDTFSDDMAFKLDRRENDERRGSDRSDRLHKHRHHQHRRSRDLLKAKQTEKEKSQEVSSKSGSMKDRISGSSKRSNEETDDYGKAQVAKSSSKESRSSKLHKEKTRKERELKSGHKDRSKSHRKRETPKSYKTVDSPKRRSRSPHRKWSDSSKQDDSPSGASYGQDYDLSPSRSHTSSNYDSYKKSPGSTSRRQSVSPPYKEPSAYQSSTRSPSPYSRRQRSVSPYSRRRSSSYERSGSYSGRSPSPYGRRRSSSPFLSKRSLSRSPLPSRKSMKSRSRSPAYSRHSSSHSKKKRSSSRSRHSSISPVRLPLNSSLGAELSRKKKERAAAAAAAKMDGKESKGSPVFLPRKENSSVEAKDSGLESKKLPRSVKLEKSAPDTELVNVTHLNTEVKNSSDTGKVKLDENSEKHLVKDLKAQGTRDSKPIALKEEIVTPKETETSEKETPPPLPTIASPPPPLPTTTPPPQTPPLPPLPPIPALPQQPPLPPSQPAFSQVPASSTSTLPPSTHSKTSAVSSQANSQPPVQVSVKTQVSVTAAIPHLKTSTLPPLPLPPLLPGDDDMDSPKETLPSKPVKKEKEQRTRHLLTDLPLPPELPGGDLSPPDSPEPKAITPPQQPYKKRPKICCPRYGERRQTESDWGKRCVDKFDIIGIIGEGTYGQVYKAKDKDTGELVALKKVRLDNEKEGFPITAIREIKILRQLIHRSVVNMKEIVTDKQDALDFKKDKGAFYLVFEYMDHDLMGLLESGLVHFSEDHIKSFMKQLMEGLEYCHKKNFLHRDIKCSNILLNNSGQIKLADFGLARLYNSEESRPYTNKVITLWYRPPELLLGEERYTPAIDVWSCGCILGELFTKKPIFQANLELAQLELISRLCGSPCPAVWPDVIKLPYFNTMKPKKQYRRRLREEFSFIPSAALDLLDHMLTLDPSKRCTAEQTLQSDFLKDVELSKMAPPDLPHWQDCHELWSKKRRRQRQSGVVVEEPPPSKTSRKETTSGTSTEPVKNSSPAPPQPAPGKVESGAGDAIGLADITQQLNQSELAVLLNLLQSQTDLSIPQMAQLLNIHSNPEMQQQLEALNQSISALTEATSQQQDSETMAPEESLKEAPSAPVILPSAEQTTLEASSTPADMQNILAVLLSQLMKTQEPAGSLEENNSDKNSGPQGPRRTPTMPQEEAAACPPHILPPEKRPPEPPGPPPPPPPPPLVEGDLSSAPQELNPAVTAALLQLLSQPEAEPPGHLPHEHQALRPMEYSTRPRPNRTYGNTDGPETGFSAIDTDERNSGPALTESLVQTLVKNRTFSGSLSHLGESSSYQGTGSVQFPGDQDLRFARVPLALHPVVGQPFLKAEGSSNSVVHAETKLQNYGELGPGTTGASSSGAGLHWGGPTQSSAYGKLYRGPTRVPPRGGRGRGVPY

Q: For `C=CC(=O)N1CCc2c(ncnc2N2CC[C@@H](Nc3ncc(Cl)c(OC)n3)C2)C1`, which IC50 (Caco-2) is on record?
A: 122 nM

Q: What about the half-life [1] of the same compound?
A: 3.2 h

Q: And the Papp at 2 h, 2 µM [2]?
A: 4.6 ×10⁻⁶ cm/s

Q: What about the half-life [3] of the same compound?
A: 4.09 h

Q: And the IC50 [4]?
A: 79.4 nM

Q: What about the IC50 (SUM149PT) of the same compound?
A: 160 nM

Q: What about the IC50 (OCI-AML-3) of the same compound?
A: 137 nM

Q: And the IC50 (NAMALVA)?
A: 98 nM

Q: And the IC50 (Ramos)?
A: 101 nM

Q: What about the IC50 (SW1417) of the same compound?
A: 137 nM

Q: What about the IC50 (MDA-MB-231) of the same compound?
A: 58 nM

Q: What about the inhibition [5] of the same compound?
A: Active

Q: And the inhibition [6]?
A: Active

Q: What about the inhibition [7] of the same compound?
A: 97%

Q: And the inhibition [8]?
A: 68%

Q: What about the inhibition (HEP Sf9) of the same compound?
A: 23%

Q: What about the inhibition [9] of the same compound?
A: 1%

Q: What about the Cmax [10] of the same compound?
A: 1350 ng/mL

Q: What about the Cmax [11] of the same compound?
A: 830 ng/mL

Q: And the Cmax [12]?
A: 1900 ng/mL

Q: What about the AUC(0-inf) [13] of the same compound?
A: 31200 ng·h/mL

Q: And the Activity [14]?
A: Non-toxic

Q: What about the Activity [15] of the same compound?
A: Toxic

Q: And the Activity [16]?
A: Toxic

Q: And the Activity [17]?
A: Toxic

Q: What about the Activity [18] of the same compound?
A: Toxic

Q: And the Activity [19]?
A: Toxic

Q: And the half-life [20]?
A: 6.2 h

Q: And the half-life [21]?
A: 4 h

Q: What about the half-life [22] of the same compound?
A: 3.5 h

Q: What about the half-life [23] of the same compound?
A: 4.2 h

Q: And the half-life [24]?
A: 2 h

Q: What about the Cmax [25] of the same compound?
A: 1070 ng/mL

Q: What about the Cmax [26] of the same compound?
A: 793 ng/mL

Q: And the AUCt [27]?
A: 1760 ng·h/mL

Q: And the Activity [28]?
A: Toxic

Source: ChEMBL document CHEMBL6153137, “Design, Synthesis, and Biological Evaluation of Novel Orally Available Covalent CDK12/13 Dual Inhibitors for the Treatment of Tumors” (J Med Chem, 2025)
